Measured values published in US6867179B1, “Methods of inducing hair growth and coloration” (Trustees of Boston University, priority 1994, dated 2005).
No end group written: not given here.

Key:
Bax = Bax level in beta-amyloid treated melanocytes (Western blot); format: cell-based, human
Experimental: To investigate the mechanism of -amyloid-mediated melanocyte death, Bax levels in melanocytes treated with 25 uM of 1-40 or 25-35-amyloid peptides was examined. Within 4 days of treatment, Bax was induced 3 fold in melanocytes stimulated either with the beta-amyloid 1-40 or 25-35 fragments as compared to melanocytes treated with the 40-1 control fragment or an irrelevant HPLC purified protein of similar size.
Melanocytes were maintained as above. Four days after addition of 25 microM of beta-amyloid fragments 1-40 40-1 or 25-35; or 25 microM of HPLC-purified bovine corticotropin releasing factor (CRF) (Bachem Calif.) (MW 4.7 kD) as an additional negative control, cells were extracted in RIPA buffer (50 mM Tris-HCl [pH 8.0], 0.15 M NaCl, 0.5% sodium deoxycholate, 1% Triton X-100) in the presence of 1 microg/ml aprotinin and 75 microg/ml phenylmethylsulfonyl fluoride (PMSF), sonicated for 1-3 seconds and centrifuged. 40 microg of protein per lane were separated on 12% SDS/PAGE and blotted onto nitrocellulose paper (overnight, 25C). To verify equal loading a duplicate 13% SDS/PAGE was performed and stained with Coomasie Blue R250 stain. […] Bound antibodies were detected using enhanced chemiluminescence kit (Amersham Corp.). […]

human p75 = assay: p75 apoptotic signaling in 3T3-p75 cells (aggregation, c-jun, JNK, caspase-3, DNA fragmentation); format: cell-based; details: peptide pretreatment, then βA
Experimental: To investigate p75 early signaling, NIH-3T3 cells engineered to constitutively express human p75 (3T3-p75), were stimulated with a known p75 ligand β amyloid (βA), and the distribution of p75 on the cell surface was analysed using immunohistochemistry and confocal laser microscopy. […] (FIG. 13)
To determine if the initial step of p75 aggregation is required for initiation of apoptosis, 3T3-p75 were pretreated with an HPLC purified cyclic peptide (CATDIKGAEC) (SEQ ID NO:9) that binds the ligand binding site of p75, and then cultures were stimulated with βA or with diluent alone.

p75^NTR-NIH 3T3 cells = assay: Effect of KGA-containing peptides on survival of beta-amyloid treated p75NTR-NIH 3T3 cells; format: cell-based; details: 250 nM peptide, 250 nM preaggregated beta-amyloid 1-40, 72 hours
Experimental: p75^NTR-NIH 3T3 cells were maintained in DME supplemented with 10% calf serum until 80% confluent. The cells were washed and incubated in serum free DME containing transferrin (5 microg/ml) and insulin (5 microg/ml). Triplicate dishes were supplemented with diluent or preaggregated beta-amyloid 1-40 (250 nM) as […]. […] After 72 hours, cells were rinsed in PBS and cultures were incubated in 0.25% trypsin at 37° C. Cell yields were determine using a particle counter.

p75 = p75 signal transduction in melanocytes (JNK activation, intracellular ceramide); format: cell-based, human
Experimental: To investigate p75 signal transduction, it was first determined by RT-PCR that trkA and trkC are not expressed in MC maintained in choleragen/TPA-free medium. MC were incubated with 10 ng/ml nerve growth factor (NGF) or neurotrophin-3 (NT-3) for 30 minutes and c-Jun amino terminal kinase (JNK) activation was determined. […] Furthermore, within 3 hours p75 activation by NGF, but not by NT-3, lead to a 2-fold increase of intracellular ceramide. As before, ceramide increase was abrogated by pre-incubation with the cyclic peptide. Because in cell lines, UV irradiation directly activates cell surface receptors such as Fas and the TNFα receptor, sham- or UV-irradiated MC were used to determine p75 activation.

BCL-2 = BCL-2 antisense oligonucleotides in UV-irradiated MM4 cells with or without NGF; format: cell-based, human
Excerpt: Purified phosphorothioate oligonucleotides were purchased from Quality Controlled Biochemicals, Inc. (Hopkinton, Mass.). 19 mer oligonucleotides were designed based on the published human BCL-2 sequence (Tsujimoto, Y. and Croce, C. M., Proc. Natl. Acad. Sci. USA, 83:5214-5218 (1986)). The sequence chosen was directed against the […] of the coding region starting 4 bases before the methionine initiation site. Nonsense oligonucleotides were used as control. Sequences used (all written 5′ to 3′): Antisense CCCAGCGTGCGCCATCCTT (SEQ ID NO: 7); Nonsense CTCCCACTCGTCATTCGAC (SEQ ID NO: 8).
MM4 cells were maintained in 60 mm diameter tissue culture dishes in 55.3% DME, 27.6% L15, 15% FBS, 1% nonessential amino acids (GIBCO BRL), 2 mM glutamine and 10 µg/ml insulin. Near confluent cells were UV irradiated with 10 mJ/cm^2. Immediately after irradiation cells were incubated with 10 uM antisense or nonsense BCL-2 oligonucleotides in suspension at […] for 30 minutes. Then cells were plated in tissue culture dishes in the presence or absence of NGF (50 ng/ml). Cells were supplemented with fresh oligonucleotides every 12 hours. Cell yield and BCL-2 level were determined 48 hours after irradiation. Cell yield was determined by counting cells in at least three representative field per each condition.

p75 NGF-R = p75 NGF-R antisense oligonucleotides in UV-irradiated, NGF-supplemented melanocytes; format: cell-based, human; details: UV 20 mJ/cm^2, 10 uM oligonucleotide, 48 hours
Experimental: The following sequences were used: Antisense 5' to 3' […] NO: 5); Nonsense 5' to 3° […] NO: 6) (negative control). […] Near confluent cells were irradiated using a 1 KW xenon arc solar simulator (XMN 1000-21, Optical Radiation Corp., Azuza, Calif.) with 20 mJ/cm^2 UV through the petri dish plastic cover. Irradiance was adjusted to 4×10^-5 UV cm^-2 and metered with a research 20 radiometer (model I[…], International Light, Newburyport, Mass.) fitted with a UVB probe at 285 Å 5 nm. […] After the initial 30 minute incubation cells were plated in 35 mm dishes in basal melanocyte medium without serum. Cells were supplemented with fresh oligonucleotides every 12 hours for 48 hours. Cells were visualized by phase contrast microscopy and pictures of representative fields were obtained. Cell yields were determined by counting cells in several representative fields.

MM4 cells = assay: MM4 cell yields after UV or sham irradiation with growth factor supplementation; format: cell-based, human
Experimental: Melanocytes or MM4 cells were plated in 60 mm diameter tissue culture dishes. Melanocytes were maintained in Medium 199 supplemented with 7% fetal bovine serum (FBS), 10 ng/ml epidermal growth factor (Collaborative Research), […] (Sigma), […] (Collaborative Research), […] (Sigma), 1.4×10^−6 M hydrocortisone (Calbiochem), […] (Calbiochem), and 10 ng/ml basic fibroblast growth factor (Collaborative Research) (basal melanocyte medium). MM4 cells were maintained in 55.3% DME, 27.6% L15, 15% FBS, 1% nonessential amino acids (GIBCO BRL), 2 mM glutamine and 10 µg/ml insulin. After 24 hours, medium was replaced by phosphate buffered saline (PBS) and cells were irradiated using a 1 KW xenon arc solar simulator (XMN 1000-21, Optical Radiation Corp., Azuza, Calif.) with 5, 10, or 25 mJ/cm^2 UV through the petri dish plastic cover. Irradiance was adjusted to 4×10^−5 UV cm^−2 and metered with a research radiometer (model IL1700A, International Light, Newburyport, Mass.) fitted with a UVB probe at 285 Å 5 nm. After UV irradiation, cells were maintained in their respective media without FBS for 2 days (MM4 cells) or 3 days (melanocytes) and processed as indicated. Sham irradiated control cultures were handled identically but laced under a dark cloth adjacent to the UV beam.
FIGS. 2B and 2D show MM4 cell yields 24-72 hours after a single UV irradiation of 10 mJ/cm^2. FIGS. 2C and 2e show MM4 cell yields 24-72 hours after sham irradiation. Cells in FIGS. 2B and 2C were supplemented with 50 ng/ml NGF or diluent alone. Cells in FIGS. 2D and 2E were supplemented with 50 ng/ml bFGF or diluent alone.
Melanocytes or MM4 cells were plated as described in Example 1. After irradiation, melanocytes were maintained in basal melanocyte medium lacking FBS and hydrocortisone, with 50 ng/ml NGF or diluent alone (melanocyte medium). MM4 cells were maintained in DME supplemented with 50 ng/ml NGF or diluent alone.

[1] = molecular target: p75^NTR over expressed on permanently transfected NIH 3T3 fibroblasts (p75^NTR NIH 3T3 cells); assay: cell-based or functional assay
[2] = molecular target: human p75 nerve growth factor receptor (human) (UniProt P08138); assay: cell-based or functional assay
[3] = molecular target: p75^NTR over expressed on permanently transfected NIH 3T3 fibroblasts (p75^NTR NIH 3T3 cells); assay: competition with 125I beta-amyloid 1-40 on p75^NTR-NIH 3T3 cells, NGF 0-100 ng/ml, counting of lysates
[4] = molecular target: the molecule itself; assay: cross-linking of 3T3-p75 cells stimulated with βA, western blot with anti p75 antibodies
[5] = molecular target: p75^NTR over expressed on permanently transfected NIH 3T3 fibroblasts (p75^NTR NIH 3T3 cells); assay: competition with 125I beta-amyloid 1-40 on p75^NTR-NIH-3T3 cells in suspension, 4 hours, counting of lysates
[6] = pre-incubation with cyclic peptide

Molecule: 25-35: beta-amyloid fragment 25-35 (GSNKGAIIGLM; Amyloid-beta protein 42; UniProt P05067 696-706, looked up, fragment)
- Bax induction versus 40-1 control fragment or irrelevant protein (Bax; 25 uM, within 4 days): 3 fold
- Bax level as compared to the 40-1 peptide (Bax; 25 microM, four days): 160%

Molecule: CATDIKGAEC (also: cyclic, ring type not given here)
- c-jun transcription (human p75): decreased c-jun transcription
- p75 aggregation (human p75): inhibited p75 aggregation
- Cell yields, cyclic peptide and beta-amyloid versus beta-amyloid alone (p75^NTR-NIH 3T3 cells): significantly higher
- JNK activation in NGF stimulated cells (p75; [6]): abrogated JNK activation
- NGF-induced ceramide increase (p75; [6]): abrogated

Molecule: CCCAGCGTGCGCCATCCTT (DNA, all phosphorothioate, methylation of C not given here; listed as Homo sapiens) [BCL-2 antisense oligonucleotides]
- BCL-2 levels (Western blot) (BCL-2; 10 uM antisense, 48 hours after UV 10 mJ/cm^2): almost undetectable
- Cell yields, NGF plus BCL-2 antisense versus NGF plus nonsense (BCL-2; UV 10 mJ/cm^2, 10 uM oligonucleotide, NGF 50 ng/ml, 48 hours): significantly lower

Molecule: CKGAIC (also: cyclic, ring type not given here) [cyclic KGA-containing hexapeptide]
- Cell yields, cyclic peptide and beta-amyloid versus beta-amyloid alone (p75^NTR-NIH 3T3 cells): significantly higher

Molecule: GGCACCTGCCCCCATCGCC (DNA, all phosphorothioate, methylation of C not given here; listed as Homo sapiens) [antisense NGF-R, 19 mer antisense against the 5′ end of the human p75 NGF-R coding region]
- NGF effect on melanocyte survival (p75 NGF-R): NGF does not have an effect on melanocyte survival

Molecule: bFGF: basic fibroblast growth factor, a major mitogen for cells of melanocytic origin
- MM4 cell survival after UV irradiation (MM4 cells; UV 10 mJ/cm^2, 50 ng/ml bFGF): failed to improve MM4 cell survival
- Effect on sham irradiated MM4 cells (MM4 cells; sham irradiation, 50 ng/ml bFGF): mitogenic effect

Molecule: beta-amyloid 1-40 peptide (from UniProt P05067 1-40)
- cell yield (% reduction of cell yield) [1]: 60
- melanocyte cell yield (% decrease in cell yield) [2]: 59

Molecule: nerve growth factor (ligand)
- intracellular ceramide (fold increase) [2]: 2
- maximum inhibition of ^125I beta-amyloid binding [3]: 38 % inhibition

B1: NT-3: neurotrophin-3 (protein, UniProt P20783 139-257, looked up)
Neurotrophin-3: YAEHKSHRGEYSVCDSESLWVTDKSSAIDIRGHQVTVLGEIKTGNSPVKQYFYETRCKEARPVKNGCRGIDDKHWNSQCKTSQTYVRALTSENNKLVGWRWIRIDTSCVCALSRKIGRT
- UV-induced JNK activation (p75; NT-3 pre-treatment, within 30 minutes of UV): partially decreased
- Increase of intracellular ceramide (p75; within 3 hours): not by NT-3

B2: human p75 nerve growth factor receptor (receptor, UniProt P08138 29-427, looked up)
chain: KEACPTGLYTHSGECCKACNLGEGVAQPCGANQTVCEPCLDSVTFSDVVSATEPCKPCTECVGLQSMSAPCVEADDAVCRCAYGYYQDETTGRCEACRVCEAGSGLVFSCQDKQNTVCEECPDGTYSDEANHVDPCLPCTVCEDTERQLRECTRWADAECEEIPGRWITRSTPPEGSDSTAPSTQEPEAPPEQDLIASTVAGVVTTVMGSSQPVVTRGTTDNLIPVYCSILAAVVVGLVAYIAFKRWNSCKQNKQGANSRPVNQTPPPEGEKLHSDSGISVDSQSLHDQQPHTQTASGQALKGDGGLYSSLPPAKREEVEKLLNGSAGDTWRHLAGELGYQPEHIDSFTHEACPVRALLASWATQDSATLDALLAALRRIQRADLVESLCSESTATSPV
notes: whole, on cells; also called p75 NGF-R; p75^NTR
- binding result [4]: binds

Molecule: CVGSNKGAIC (not fully specified (bridges); also: cyclic peptide, ring type not given here) [cyclic peptide … (SEQ ID NO: 4)]
- IC50 [5]: 25 nM
